Experimental findings from patent publication US20250304567A1, “PYRROLIDIONE DERIVATIVES AS INHIBITORS OF NF KAPPA B INDUCING KINASE” (priority 2022, published 2025) are described below.

Usually IC50 stands for the concentration needed to halve the response being measured.

Some results are limits rather than exact numbers.

The test system of assay [1] is p-IKKa levels in L363 (NIK translocated multiple myeloma) cells. As to the kind of experiment: Effect of compounds on p-IKKa levels in L363 (NIK translocated multiple myeloma) cells (AlphaLISA SureFire Ultra p-IKKa Ser176/180). The class given is cell-based, human. The following applies: Homo sapiens, L-363, p-IKKa levels in L363 cells; average if tested more than once; read-out: Assay 2 IC50. The gist of the method:
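L363 multiple myeloma cells, BAFF-stimulated overnight (250 ng/ml), then 6 h at 37 °C with compound (11-point 1:3 series, 0.3% DMSO) plus BAFF and 10 μM MG132. p-IKKa Ser176/180 read by AlphaLISA SureFire Ultra; IC50 from sigmoidal fit normalised to stimulated and unstimulated controls.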
A general note: Alpha assays give light when donor and acceptor beads are brought close together.

The target of assay [2] is Recombinant Human NF-kappaB-Inducing Kinase (NIK/MAP3K14) (Homo sapiens, UniProt Q99558). The experiment in a line: Inhibition of auto-phosphorylation of recombinant human NIK/MAP3K14 activity (AlphaScreen). The class given is biochemical. The following applies: 5 μM ATP, 1 nM NIK, average if tested more than once. The gist of the method:
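GST-tagged NIK (1 nM) auto-phosphorylation with 5 μM ATP, 2 h at 25 °C, pH 7.5 Tris buffer, 0.7% DMSO; stopped with anti-phospho-IKK Ser176/180 antibody and read by AlphaScreen. Signal normalized to full-activity and no-enzyme/no-ATP controls; IC50 from sigmoidal fit of % inhibition vs log concentration.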

Recombinant Human NF-kappaB-Inducing Kinase (NIK/MAP3K14), sequence (Q99558 whole entry): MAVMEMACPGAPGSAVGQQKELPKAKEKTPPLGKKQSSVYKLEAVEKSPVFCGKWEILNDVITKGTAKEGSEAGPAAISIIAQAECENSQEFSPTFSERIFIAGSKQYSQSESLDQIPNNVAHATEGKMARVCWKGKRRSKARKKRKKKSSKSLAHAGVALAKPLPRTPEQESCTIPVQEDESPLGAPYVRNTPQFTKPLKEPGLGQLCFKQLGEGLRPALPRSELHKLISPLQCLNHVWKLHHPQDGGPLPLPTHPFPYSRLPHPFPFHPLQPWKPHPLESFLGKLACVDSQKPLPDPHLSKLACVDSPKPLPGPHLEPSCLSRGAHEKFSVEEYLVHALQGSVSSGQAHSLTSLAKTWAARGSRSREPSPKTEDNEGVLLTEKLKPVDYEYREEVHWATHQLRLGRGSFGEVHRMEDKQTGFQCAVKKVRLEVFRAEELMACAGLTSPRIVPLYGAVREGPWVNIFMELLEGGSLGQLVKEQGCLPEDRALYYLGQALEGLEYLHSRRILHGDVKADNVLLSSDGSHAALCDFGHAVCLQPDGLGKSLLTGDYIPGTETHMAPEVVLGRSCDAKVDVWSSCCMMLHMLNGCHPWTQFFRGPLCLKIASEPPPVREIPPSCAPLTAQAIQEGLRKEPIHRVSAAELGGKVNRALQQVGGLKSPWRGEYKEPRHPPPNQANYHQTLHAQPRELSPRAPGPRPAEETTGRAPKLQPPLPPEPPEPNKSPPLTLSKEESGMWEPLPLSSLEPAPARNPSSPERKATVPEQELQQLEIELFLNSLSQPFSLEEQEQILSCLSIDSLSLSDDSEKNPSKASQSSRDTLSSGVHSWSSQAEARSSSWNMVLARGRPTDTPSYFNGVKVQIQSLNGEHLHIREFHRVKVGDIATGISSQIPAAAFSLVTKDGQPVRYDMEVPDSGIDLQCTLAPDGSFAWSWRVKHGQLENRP

As to `CN1CC[C@@](O)(c2cccc(-c3nc(-c4ccnc(Nc5cnn(C6CC6)c5)n4)cs3)c2)C1=O` [Example 263, (R)-3-(3-(4-(2-((1-Cyclopropyl-1H-pyrazol-4-yl)amino)pyrimidin-4-yl)thiazol-2-yl)phenyl)-3-hydroxy-1-methylpyrrolidin-2-one], the half-maximal inhibitory concentration (IC50) in assay [1] is 0.1 to 0.5 µM; in assay [2], below 0.1 µM.

As to `CN1CCC(O)(c2cncc(-c3csc(-c4ccnc(Nc5ccnn5C)n4)n3)c2)C1=O` (single isomer, unassigned) [Example 46, (R)-3-Hydroxy-1-methyl-3-(5-(2-(2-((1-methyl-1H-pyrazol-5-yl)amino)pyrimidin-4-yl)thiazol-4-yl)pyridin-3-yl)pyrrolidin-2-one or (S)-3-hydroxy-1-methyl-3-(5-(2-(2-((1-methyl-1H-pyrazol-5-yl)amino)pyrimidin-4-yl)thiazol-4-yl)pyridin-3-yl)pyrrolidin-2-one], the IC50 in assay [1] and in assay [2] was below 0.1 µM throughout.

In the case of `CN1CC[C@@](O)(c2cccc(-c3nc(-c4ccnc(Nc5ccon5)n4)cs3)c2)C1=O` [Example 266, (R)-3-Hydroxy-3-(3-(4-(2-(isoxazol-3-ylamino)pyrimidin-4-yl)thiazol-2-yl)phenyl)-1-methylpyrrolidin-2-one], the values for the IC50 in assay [1] and in assay [2] were 0.1 to 0.5 µM and below 0.1 µM, respectively.

Turning to `C[C@@H](Nc1nccc(-n2ccc(-c3cccc([C@]4(O)CCN(C)C4=O)c3)n2)n1)c1ccnn1C` (single isomer, unassigned) [Example 92], the IC50 in assay [1] and in assay [2] was below 0.1 µM throughout.

Consider `CN1CC[C@@](O)(c2cccc(-c3nc(-c4ccnc(Nc5nccc(C(F)(F)F)n5)n4)cs3)c2)C1=O` [Example 165, (R)-3-Hydroxy-1-methyl-3-(3-(4-(2-((4-(trifluoromethyl)pyrimidin-2-yl)amino)pyrimidin-4-yl)thiazol-2-yl)phenyl)pyrrolidin-2-one], for which the results for the IC50 in assay [1] and in assay [2] were above 0.501 µM and 0.1 to 0.5 µM, respectively.

For the molecule `CN1CC[C@@](O)(c2cccc(-c3csc(-c4ccnc(Nc5cnn(CC6CC6)c5)n4)n3)c2)C1=O` [Example 20, (R)-3-(3-(2-(2-((1-(cyclopropylmethyl)-1H-pyrazol-4-yl)amino)pyrimidin-4-yl)thiazol-4-yl)phenyl)-3-hydroxy-1-methylpyrrolidin-2-one], the IC50 in assay [1] is above 0.501 µM; in assay [2], 0.1 to 0.5 µM.

For `CN1C[C@@H](Nc2nccc(-c3csc(-c4cccc([C@]5(O)CCN(C)C5=O)c4)n3)n2)CC1=O` (single isomer, unassigned) [Example 235], the IC50 in assay [1] was above 0.501 µM; in assay [2], below 0.1 µM.

With `CN1C[C@H](Nc2nccc(-c3csc(-c4cccc([C@]5(O)CCN(C)C5=O)c4)n3)n2)CC1=O` (single isomer, unassigned) [Example 234], the 50% inhibitory concentration (IC50) in assay [1] was above 0.501 µM; in assay [2], 0.1 to 0.5 µM.

As to `CN1CC[C@@](O)(c2ccnc(-c3csc(-c4ccnc(Nc5ccnn5C)n4)n3)c2)C1=O` (single isomer, unassigned) [Example 144, (R)-3-hydroxy-1-methyl-3-(2-(2-(2-((1-methyl-1H-pyrazol-5-yl)amino)pyrimidin-4-yl)thiazol-4-yl)pyridin-4-yl)pyrrolidin-2-one or (S)-3-hydroxy-1-methyl-3-(2-(2-(2-((1-methyl-1H-pyrazol-5-yl)amino)pyrimidin-4-yl)thiazol-4-yl)pyridin-4-yl)pyrrolidin-2-one], the figures for the IC50 in assay [1] and in assay [2] were 0.1 to 0.5 µM and below 0.1 µM, respectively.

With `CC(Nc1nccc(-c2csc(-c3cccc([C@]4(O)CCN(C)C4=O)c3)n2)n1)c1ccnn1C` (stereo partly drawn) [Example 119, (R)-3-hydroxy-1-methyl-3-(3-(4-(2-(((R,S)-1-(1-methyl-1H-pyrazol-5-yl)ethyl)amino)pyrimidin-4-yl)thiazol-2-yl)phenyl)pyrrolidin-2-one], the results for the IC50 in assay [1] and in assay [2] were 0.1 to 0.5 µM and below 0.1 µM, respectively.

With `C[C@@H](Nc1nccc(-c2csc(-c3cccc([C@]4(O)CCN(C)C4=O)c3)n2)n1)c1cn[nH]c1` (single isomer, unassigned) [Example 139], the IC50 in assay [1] and in assay [2] was below 0.1 µM each time.

As to `CN1CC[C@@](O)(c2cccc(-c3nc(-c4ccnc(Nc5ccn(C(C)(C)C)n5)n4)cs3)c2)C1=O` [Example 285, (R)-3-(3-(4-(2-((1-(tert-butyl)-1H-pyrazol-3-yl)amino)pyrimidin-4-yl)thiazol-2-yl)phenyl)-3-hydroxy-1-methylpyrrolidin-2-one], the values for the IC50 in assay [1] and in assay [2] were 0.1 to 0.5 µM and below 0.1 µM, respectively.

Consider `CN1CC[C@@](O)(c2cccc(-c3nc(-c4ccnc(Nc5cnn(C6CCOCC6)c5)n4)cs3)c2)C1=O` [Example 273, (R)-3-Hydroxy-1-methyl-3-(3-(4-(2-((1-(tetrahydro-2H-pyran-4-yl)-1H-pyrazol-4-yl)amino)pyrimidin-4-yl)thiazol-2-yl)phenyl)pyrrolidin-2-one], for which the IC50 in assay [1] and in assay [2] was below 0.1 µM in each case.

For the molecule `CN1CC[C@@](O)(c2cncc(-c3ccn(-c4ccnc(Nc5cnn6cccnc56)n4)n3)c2)C1=O` (single isomer, unassigned) [Example 148, (R)-3-hydroxy-1-methyl-3-(5-(1-(2-(pyrazolo[1,5-a]pyrimidin-3-ylamino)pyrimidin-4-yl)-1H-pyrazol-3-yl)pyridin-3-yl)pyrrolidin-2-one or (S)-3-hydroxy-1-methyl-3-(5-(1-(2-(pyrazolo[1,5-a]pyrimidin-3-ylamino)pyrimidin-4-yl)-1H-pyrazol-3-yl)pyridin-3-yl)pyrrolidin-2-one], the concentration for half-maximal inhibition (IC50) was above 0.501 µM in assay [1] and below 0.1 µM in assay [2].

Turning to `COCCCNc1nccc(-c2csc(-c3cccc([C@]4(O)CCN(C)C4=O)c3)n2)n1` [Example 242], the IC50 in assay [1] is above 0.501 µM; in assay [2], 0.1 to 0.5 µM.

As to `CN1CC[C@@](O)(c2cccc(-c3coc(-c4ccnc(Nc5ccn(C)n5)n4)n3)c2)C1=O` [Example 4, (R)-3-hydroxy-1-methyl-3-(3-(2-(2-((1-methyl-1H-pyrazol-3-yl)amino)pyrimidin-4-yl)oxazol-4-yl)phenyl)pyrrolidin-2-one], the IC50 was above 0.501 µM in assay [1] and below 0.1 µM in assay [2].

Turning to `Cc1cc(Nc2nccc(-c3csc(-c4cccc([C@]5(O)CCN(C)C5=O)c4)n3)n2)c(=O)n(C)c1` [Example 14, (R)-3-((4-(2-(3-(3-Hydroxy-1-methyl-2-oxopyrrolidin-3-yl)phenyl)thiazol-4-yl)pyrimidin-2-yl)amino)-1,5-dimethylpyridin-2(1H)-one], the IC50 was 0.1 to 0.5 µM in assay [1] and below 0.1 µM in assay [2].

For `CN1CC[C@@](O)(c2cccc(-c3nc(-c4ccnc(NCc5ncccn5)n4)cs3)c2)C1=O` [Example 218], the figures for the IC50 in assay [1] and in assay [2] were above 0.501 µM and 0.1 to 0.5 µM, respectively.

`CN1CCn2nc(Nc3nccc(-c4csc(-c5cccc([C@]6(O)CCN(C)C6=O)c5)n4)n3)cc2C1=O` [Example 53, (R)-2-((4-(2-(3-(3-Hydroxy-1-methyl-2-oxopyrrolidin-3-yl)phenyl)thiazol-4-yl)pyrimidin-2-yl)amino)-5-methyl-6,7-dihydropyrazolo[1,5-a]pyrazin-4(5H)-one]: the IC50 is 0.1 to 0.5 µM in assay [1] and below 0.1 µM in assay [2].

For the molecule `CN1CC[C@@](O)(c2cccc(-c3nc(-c4ccnc(Nc5ccnn5CC5CC5)n4)cs3)c2)C1=O` [Example 65, (R)-3-(3-(4-(2-((1-(cyclopropylmethyl)-1H-pyrazol-5-yl)amino)pyrimidin-4-yl)thiazol-2-yl)phenyl)-3-hydroxy-1-methylpyrrolidin-2-one], the IC50 was above 0.501 µM in assay [1] and 0.1 to 0.5 µM in assay [2].

Consider `CN1CC[C@@](O)(c2cccc(-c3csc(-c4ccnc(Nc5cnn6ccccc56)n4)n3)c2)C1=O` [Example 82, (R)-3-hydroxy-1-methyl-3-(3-(2-(2-(pyrazolo[1,5-a]pyridin-3-ylamino)pyrimidin-4-yl)thiazol-4-yl)phenyl)pyrrolidin-2-one], for which the IC50 in assay [1] and in assay [2] was below 0.1 µM each time.

Turning to `CN1CC[C@@](O)(c2cccc(-c3nc(-c4ccnc(Nc5ccn(C6CC6)n5)n4)cs3)c2)C1=O` [Example 259, (R)-3-(3-(4-(2-((1-Cyclopropyl-1H-pyrazol-3-yl)amino)pyrimidin-4-yl)thiazol-2-yl)phenyl)-3-hydroxy-1-methylpyrrolidin-2-one], the half-maximal inhibitory concentration (IC50) in assay [1] is 0.1 to 0.5 µM; in assay [2], below 0.1 µM.

On to `CN1CC[C@@](O)(c2cccc(-c3nc(-c4ccnc(NCc5cn(C)cn5)n4)cs3)c2)C1=O` [Example 196], for which the IC50 is above 0.501 µM in assay [1] and 0.1 to 0.5 µM in assay [2].

As for `Cc1nn(C)cc1Nc1nccc(-c2csc(-c3cccc([C@]4(O)CCN(C)C4=O)c3)n2)n1` [Example 269, (R)-3-(3-(4-(2-((1,3-dimethyl-1H-pyrazol-4-yl)amino)pyrimidin-4-yl)thiazol-2-yl)phenyl)-3-hydroxy-1-methylpyrrolidin-2-one], the concentration for half-maximal inhibition (IC50) in assay [1] and in assay [2] was below 0.1 µM in each case.

As for `CN1CC[C@@](O)(c2cccc(-c3nc(-c4ccnc(Nc5cnn(C(F)F)c5)n4)cs3)c2)C1=O` [Example 271, (R)-3-(3-(4-(2-((1-(Difluoromethyl)-1H-pyrazol-4-yl)amino)pyrimidin-4-yl)thiazol-2-yl)phenyl)-3-hydroxy-1-methylpyrrolidin-2-one], the results for the IC50 in assay [1] and in assay [2] were 0.1 to 0.5 µM and below 0.1 µM, respectively.

In the case of `Cc1cnc(CNc2nccc(-c3csc(-c4cccc([C@]5(O)CCN(C)C5=O)c4)n3)n2)o1` [Example 200], the values for the IC50 in assay [1] and in assay [2] were above 0.501 µM and below 0.1 µM, respectively.
